In brackets after ≈: the same amount, converted by molar mass. Several values for one entry are separate records, joined by “and”; a condition that tells them apart may be missing. Equal entries are not always repeated. Entries after “also recorded” stand apart in the source; their conditions may differ. Where two headings read alike, the source gives them in different places.
Experiments:
E. coli = conditions: CAMHB
Experimental: (§1) Broad-spectrum antimicrobial activity was evaluated using the broth microdilution assays against two different pathogens from four different species of bacteria (P. aeruginosa, S. aureus, K. pneumoniae, and E. coli) to determine if the cyclotides retained its potent activity. Broth microdilution assays were utilized to determine the minimum inhibitory concentrations (MICs) of our cyclotides according to the CLSI (formerly NCCLS) guidelines modifications as described below (40). The assay utilized cation-adjusted Mueller-Hinton broth (CAMHB) (Becton, Dickinson and Company, Franklin Lakes, NJ) which was prepared according to the manufacturer's instructions. Cyclotide solutions were prepared as 10× solutions in 0.01% acetic acid. Cyclotide were serially diluted two-fold at concentrations ranging from 25-0.05 μM that contained CAMHB and 0.04% bovine serum albumin (BSA) in polypropylene microtiter plates (Corning, Corning, NY). All bacteria were incubated overnight at 37° C. at 200 rpm in CAMHB and bacterial inoculum was adjusted with additional CAMHB to 0.5 McFarland standard through spectrophotometry at 600 nm. […] Study strains included a total of 20 P. aeruginosa and 20 methicillin resistant S. aureus strains from patients with cystic fibrosis at the Keck Medical Center of the University of Southern California. […] Colistin sulphate (Sigma-Aldrich, St Louis, MO) was used as a reference antibiotic for P. aeruginosa and E. coli, while vancomycin hydrochloride and meropenem trihydrate were used as reference antibiotics for S. aureus and K. pneumoniae.

[1] = system: clinical isolates of P. aeruginosa
Experimental: as §1

[2] = system: clinical isolates of methicillin-resistant S. aureus (MRSA)
Experimental: as §1

[3] = system: human HEK293T and A549 epithelial cells
Experimental: Cytotoxicity Assay. Cellular toxicities against human HEK293T and A549 epithelial cells were evaluated using Resazurin (Alamarblue™, Thermo Fisher Scientific, Waltham, MA). HEK293T cells were grown in minimum essential media (MEM), while A549 cells were grown in Dulbecco's […] (DMEM) supplemented with 10% fetal bovine serum (FBS) and maintained at 37° C. with 5% CO2. For each cell line, 10^4 cells were added to each well in a 96-well polystyrene plate and incubated for 16 h. Peptides were serially diluted two-fold at concentrations ranging from 100-0.2 μM in medium containing 10% FBS in polystyrene 96 well microtiter plates (Corning) for 16 h. After the incubation period, the cells were washed with PBS and treated with 200 μL/well DMEM media supplemented with 10% FBS containing the peptides at the indicated concentration for 22 h at 37° C. in 5% CO2 and then the medium was replaced with fresh growth medium containing resazurin and incubated for another 2 hours. Cell viability was quantified spectrophotometrically and cells incubated in the absence of peptides and containing 2% Triton X-100 (Sigma) served as controls.

in vitro = conditions: 37° C., LC-MS/MS
Experimental: This was accomplished by incubating the corresponding peptides in human serum at 37° C. The quantitative analysis of undigested polypeptides was performed using liquid chromatography coupled with tandem mass spectrometry (LC-MS/MS). MCoTI-cyclotides present a very rigid structure,[24] which makes them extremely stable to proteolytic degradation.
Human serum stability. […]. Peptides were dissolved in water at 10 mg/mL concentration. 150 μg of peptides (15 μL) were mixed with 500 μL of human serum and incubated at 37° C. Samples (30 μL) were taken at various time intervals (0-120 h) and serum proteins were precipitated using 180 μL of acetonitrile containing 0.1% TFA. After centrifugation the pellet was dissolved in 8 M GdmCl and the supernatant was lyophilized and re-dissolved in 5% acetonitrile in water containing 0.1% formic acid. Both the supernatant and solubilized pellet fractions were analyzed by HPLC and LC-MS/MS. Each experiment was done in triplicate.

[4] = Maximum tolerated dose (MTD) toxicology study
Description: Colistin was used as a control antibiotic.[28] […] For this purpose, Applicant employed a P. aeruginosa bacterial peritonitis model.[29] This animal model is a well-established acute infection model and is commonly utilized as a common preclinical screening method for new antibiotics.[30] Peritonitis in Balb/c mice (n=10) was established by intraperitoneal injection of 1.5×10^7 colony forming units (CFU) per mouse of P. aeruginosa (Schroeter) Migula (ATCC 27853).
Maximum tolerated dose (MTD) toxicology Studies. The MTD was determined using two different endpoints: weight loss and clinical scoring. Clinical scores were evaluated through activity, appearance and body condition, similar to previously published literature (42). […] Any dose escalation that leads to moderate toxicity (clinical score of >2) was ceased and the dose prior served as the MTD. Mice were monitored every hour for 4 h after injection on the first day. After 24 h, mice were monitored twice daily for another two days until weight and clinical scores were returned to normal. Mice that met the criteria for moribund included a >20% weight loss and clinical score of >3 and were euthanized.

## CC[C@H](C)[C@@H]1NC(=O)[C@@H]2CSSC[C@@H]3NC(=O)[C@H](C(C)C)NC(=O)CNC(=O)CNC(=O)[C@H](CCCNC(=N)N)NC(=O)[C@H](CCCNC(=N)N)NC(=O)CNC(=O)[C@H](C(C)C)NC(=O)[C@@H]4CSSC[C@H](NC(=O)[C@H](CC(C)C)NC(=O)[C@H](CCCNC(=N)N)NC(=O)CNC(=O)CNC(=O)[C@H](CO)NC(=O)CNC(=O)[C@H](CO)NC(=O)CNC(=O)[C@@H]5CSSC[C@H](NC(=O)[C@H](CC(=O)O)NC(=O)[C@H](CO)NC(=O)[C@H](CC(=O)O)NC(=O)[C@H](CCCNC(=N)N)NC(=O)[C@H](CCCNC(=N)N)NC(=O)[C@H](CSSC[C@H](NC1=O)C(=O)N[C@@H](CCCNC(=N)N)C(=O)NCC(=O)N[C@@H](CC(N)=O)C(=O)NCC(=O)N[C@@H](Cc1ccc(O)cc1)C(=O)N5)NC(=O)[C@H](CCCNC(=N)N)NC(=O)[C@H](CCC(N)=O)NC(=O)[C@H](CC(C)C)NC(=O)[C@H]([C@@H](C)CC)NC(=O)[C@H](CCCCN)NC(=O)[C@@H]1CCCN1C3=O)C(=O)N1CCC[C@H]1C(=O)NCC(=O)N[C@@H](C)C(=O)N2)C(=O)N[C@@H](Cc1ccc(O)cc1)C(=O)N[C@H]1CSSC[C@H](NC(=O)[C@H](Cc2ccccc2)NC(=O)[C@H](CCCNC(=N)N)NC(=O)[C@H](CCCNC(=N)N)NC(=O)[C@H](CCCNC(=N)N)NC1=O)C(=O)N[C@@H](C(C)C)C(=O)N4 [MCo-PG2]
E. coli; E. coli DS377
  MIC: 0.8 µM (≈ 4.4 µg/mL)
E. coli; E. coli K12
  MIC: 0.8 µM (≈ 4.4 µg/mL)
[1]; PA strain 95302
  P. aeruginosa (PA) MIC: 1.57 µM
[1]; PA strain 119133
  P. aeruginosa (PA) MIC: 3.125 µM
[1]; PA strain 167482
  P. aeruginosa (PA) MIC: 0.4 µM
[1]; PA strain 200174
  P. aeruginosa (PA) MIC: 0.4 µM
[1]; PA strain 219686
  P. aeruginosa (PA) MIC: 3.125 µM
[1]; PA strain 254831
  P. aeruginosa (PA) MIC: 1.5 µM
[1]; PA strain 262309
  P. aeruginosa (PA) MIC: 1.5 µM
[1]; PA strain 298473
  P. aeruginosa (PA) MIC: 0.78 µM
[1]; PA strain 466035
  P. aeruginosa (PA) MIC: 0.4 µM
[1]; PA strain 486442
  P. aeruginosa (PA) MIC: 0.78 µM
[1]; PA strain 618154
  P. aeruginosa (PA) MIC: 0.78 µM
[1]; PA strain 678449
  P. aeruginosa (PA) MIC: 3.125 µM
[1]; PA strain 774248
  P. aeruginosa (PA) MIC: 12.5 µM
[1]; PA strain 815159
  P. aeruginosa (PA) MIC: 0.78 µM
[1]; PA strain 844265
  P. aeruginosa (PA) MIC: 0.78 µM
[1]; PA strain 857950
  P. aeruginosa (PA) MIC: 6.25 µM
[1]; PA strain 864684
  P. aeruginosa (PA) MIC: 3.125 µM
[1]; PA strain 894496
  P. aeruginosa (PA) MIC: 0.78 µM
[1]; PA strain 894925
  P. aeruginosa (PA) MIC: 3.125 µM
[1]; PA strain 900719
  P. aeruginosa (PA) MIC: 3.125 µM
[2]; MRSA clinical isolates, n=20
  S. aureus MIC50: 6.25 µM and 6.3 µM
  S. aureus MIC90: 12.5 µM
[2]; SA strain 766
  S. aureus (SA) MIC: 6.25 µM
[2]; SA strain 4084-1
  S. aureus (SA) MIC: 12.5 µM
[2]; SA strain 4094
  S. aureus (SA) MIC: 12.5 µM
[2]; SA strain 6151-1
  S. aureus (SA) MIC: 12.5 µM
[2]; SA strain 10337-1
  S. aureus (SA) MIC: 6.25 µM
[2]; SA strain 10630-1
  S. aureus (SA) MIC: 6.25 µM
[2]; SA strain 20021-1
  S. aureus (SA) MIC: 6.25 µM
[2]; SA strain 20457-1
  S. aureus (SA) MIC: 12.5 µM
[2]; SA strain 28283
  S. aureus (SA) MIC: 6.25 µM
[2]; SA strain 28310
  S. aureus (SA) MIC: 6.25 µM
[2]; SA strain 28355
  S. aureus (SA) MIC: 6.25 µM
[2]; SA strain 30138-2
  S. aureus (SA) MIC: 3.125 µM
[2]; SA strain 30493-1
  S. aureus (SA) MIC: 6.25 µM
[2]; SA strain 32120-1
  S. aureus (SA) MIC: 6.25 µM
[2]; SA strain 38878-2
  S. aureus (SA) MIC: 3.125 µM
[2]; SA strain 87066
  S. aureus (SA) MIC: 12.5 µM
[2]; SA strain 87112
  S. aureus (SA) MIC: 12.5 µM
[2]; SA strain 87180
  S. aureus (SA) MIC: 6.25 µM
[2]; SA strain 88,531
  S. aureus (SA) MIC: 12.5 µM
[2]; SA strain 902674
  S. aureus (SA) MIC: 12.5 µM
[3]
  cytotoxicity relative to PG-1: about three times less toxic than PG-1; also recorded: about three times less cytotoxic than PG-1
In vitro
  t1/2 in human serum: ~60 h
In vitro; human, human serum, t1/2 in human serum
  half-life at 0.291 mg/mL: 60 ± 6 h
[4]; Balb/c, mouse, in vivo, ip
  MTD at 3 days: 25 mg/kg
[4]; in vivo toxicity studies
  times less toxic than PG-1 in mice: approximately 4
